ChEMBL document CHEMBL6182947, “Discovery of Phloroglucinol Derivatives as a New Type of Nonnucleoside Inhibitors with Anti-herpes Simplex Virus Type 1 Activity” (J Med Chem, 2025)

What was measured:
[1] = test system: Human alphaherpesvirus 1; assay: Antiviral activity against HSV1 infected in African green monkey Vero cells assessed as reduction of virus-induced cytopathic effect measured after 48 hrs of incubation; assay type: functional, organism-based; details: Human alphaherpesvirus 1, Vero
[2] = Cytotoxicity against African green monkey Vero cells assessed as cell viability measured after 24 hrs incubation by MTT assay; assay type: toxicity, cell-based; details: chlorocebus sabaeus
[3] = Selectivity index, ratio of CC50 for Cytotoxicity against african green monkey Vero cells to IC50 for Antiviral activity against HSV1 infected in African green monkey Vero cells; assay type: toxicity, cell-based; details: read-out: Selectivity Index
[4] = test system: Human alphaherpesvirus 1; assay: Antiviral activity against ACV-resistant HSV1 Blue infected in African green monkey Vero cells assessed as reduction of virus-induced cytopathic effect measured after 48 hrs of incubation; assay type: functional, organism-based; details: Human alphaherpesvirus 1, Blue
[5] = test system: Human alphaherpesvirus 1; assay: Antiviral activity against ACV-resistant HSV1 153 infected in African green monkey Vero cells assessed as reduction of virus-induced cytopathic effect measured after 48 hrs of incubation; assay type: functional, organism-based; details: Human alphaherpesvirus 1, 153, Vero

Structure (SMILES) | IC50 [1] | CC50 at 24 h [2] | selectivity ratio [3] | IC50 [4] | IC50 [5]
CC(C)CC1C2=C(Oc3cc(O)c(C(=O)C4CCCCC4)c(O)c31)C(C)(C)C(=O)C(C)(C)C2=O (stereo not drawn) | 0.2 µM | 7 µM | 35 | 0.25 µM | 0.3 µM
CC(C)CC(=O)c1c(O)c(Br)c2c(c1O)C(CC(C)C)C1=C(O2)C(C)(C)C(=O)C(C)(C)C1=O (stereo not drawn) | 0.6 µM | 7 µM | 11.7 | 0.6 µM | 0.7 µM
CCCCC(=O)c1c(O)cc2c(c1O)C(CC(C)C)C1=C(O2)C(C)(C)C(=O)C(C)(C)C1=O (stereo not drawn) | 0.5 µM | 8 µM | 20 | 1.2 µM | 1.2 µM
CC(=O)c1c(O)cc2c(c1O)C(CC(C)C)C1=C(O2)C(C)(C)C(=O)C(C)(C)C1=O (stereo not drawn) | 0.9 µM | 12.5 µM | 13.4 |  | 
COc1cc2c(c(O)c1C(=O)CC(C)C)C(CC(C)C)C1=C(O2)C(C)(C)C(=O)C(C)(C)C1=O (stereo not drawn) | > 100 µM | > 100 µM |  |  | 
CCC(=O)c1c(O)cc2c(c1O)C(CC(C)C)C1=C(O2)C(C)(C)C(=O)C(C)(C)C1=O (stereo not drawn) | 0.7 µM | 7 µM | 13.9 | 1.4 µM | 1.3 µM
CC(C)CC(=O)c1c(O)cc2c(c1O)[C@H](CC(C)C)C1=C(O2)C(C)(C)[C@@H](O)C(C)(C)C1=O | 2.5 µM | 7.5 µM | 3 |  | 
COc1cc2c(c(OC)c1C(=O)CC(C)C)C(CC(C)C)C1=C(O2)C(C)(C)C(=O)C(C)(C)C1=O (stereo not drawn) | 50 µM | > 100 µM |  |  | 
CC(C)C(=O)c1c(O)cc2c(c1O)C(C(C)C)C1=C(O2)C(C)(C)C(=O)C(C)(C)C1=O (racemic) | 0.78 µM | 20.9 µM | 26.8 |  | 
CC(C)CC1C2=C(Oc3cc(O)cc(O)c31)C(C)(C)C(=O)C(C)(C)C2=O (stereo not drawn) | 7 µM | 13 µM | 1.86 |  | 
CC(=O)Oc1cc2c(c(OC(C)=O)c1C(=O)CC(C)C)C(CC(C)C)C1=C(O2)C(C)(C)C(=O)C(C)(C)C1=O (stereo not drawn) | 0.5 µM | 7 µM | 14 | 0.3 µM | 0.4 µM
CCCCC1C2=C(Oc3cc(O)c(C(=O)CC(C)C)c(O)c31)C(C)(C)C(=O)C(C)(C)C2=O (stereo not drawn) | 1 µM | 10 µM | 10 | 0.6 µM | 0.4 µM
CC(C)CC1C2=C(Oc3cc(O)c(C(=O)C(C)C)c(O)c31)C(C)(C)C(=O)C(C)(C)C2=O (stereo not drawn) | 0.63 µM | 7 µM | 17.8 | 0.3 µM | 0.4 µM
CC(C)CC(=O)c1c(O)cc2c(c1O)[C@@H](CC(C)C)C1=C(C[C@H](C)CC1=O)O2 | 2 µM | 14 µM | 7 |  | 
CC(C)CC(=O)c1c(O)c(C=O)c2c(c1O)C(CC(C)C)C1=C(O2)C(C)(C)C(=O)C(C)(C)C1=O (stereo not drawn) | 2.5 µM | 9 µM | 3.6 |  | 
CC(C)CC1C2=C(Oc3cc(O)c(C=O)c(O)c31)C(C)(C)C(=O)C(C)(C)C2=O (stereo not drawn) | 4.5 µM | 16 µM | 3.56 |  | 
CC(C)CC(=O)c1c(O)cc2c(c1O)C(C1CCCC1)C1=C(O2)C(C)(C)C(=O)C(C)(C)C1=O (stereo not drawn) | 0.7 µM | 8 µM | 11.4 | 0.5 µM | 0.5 µM
CC1(C)C(=O)C2=C(Oc3cc(O)cc(O)c3C2c2ccccc2)C(C)(C)C1=O (stereo not drawn) | 8 µM | 18 µM | 2.25 |  | 
CCC1C2=C(Oc3cc(O)c(C(=O)CC(C)C)c(O)c31)C(C)(C)C(=O)C(C)(C)C2=O (stereo not drawn) | 0.8 µM | 6 µM | 7.5 | 0.6 µM | 0.5 µM
CC(C)CC(=O)c1c(O)cc(O)c2c1OC1=C(C(=O)C(C)(C)C(=O)C1(C)C)C2C(C)C (racemic) | 3.75 µM | 10 µM | < 4 |  | 
CC(C)CC1C2=C(Oc3c(C(=O)C(C)C)c(O)cc(O)c31)C(C)(C)C(=O)C(C)(C)C2=O (racemic) | 3.5 µM | 12.8 µM | 3.65 |  | 
CC(C)CC1C2=C(Oc3cc(O)c(C(=O)CCc4ccccc4)c(O)c31)C(C)(C)C(=O)C(C)(C)C2=O (stereo not drawn) | 0.45 µM | 7 µM | 15.6 | 0.2 µM | 0.4 µM
CC(C)CC(=O)c1c(O)cc2c(c1O)C(C1CCCCC1)C1=C(O2)C(C)(C)C(=O)C(C)(C)C1=O (stereo not drawn) | 0.8 µM | 10 µM | 12.5 | 0.5 µM | 0.5 µM
CC(C)CC(=O)c1ccc2c(c1O)C(CC(C)C)C1=C(O2)C(C)(C)C(=O)C(C)(C)C1=O (stereo not drawn) | 50 µM | > 100 µM |  |  | 
CCCC1C2=C(Oc3cc(O)c(C(=O)CC(C)C)c(O)c31)C(C)(C)C(=O)C(C)(C)C2=O (stereo not drawn) | 0.5 µM | 9 µM | 18 | 0.3 µM | 0.5 µM

Structure (SMILES) | IC50 [1] | CC50 at 24 h [2] | selectivity ratio [3] | IC50 [4] | IC50 [5]
CC(C)CC(=O)c1c(OS(=O)(=O)C(F)(F)F)cc2c(c1O)C(CC(C)C)C1=C(O2)C(C)(C)C(=O)C(C)(C)C1=O (stereo not drawn) | 1.2 µM | 20 µM | 16.7 | 1 µM | 0.6 µM
CC(C)CC1C2=C(Oc3cc(O)c(C(=O)CCCCCl)c(O)c31)C(C)(C)C(=O)C(C)(C)C2=O (stereo not drawn) | 0.45 µM | 8 µM | 16 | 0.6 µM | 0.5 µM
CC(C)CC(=O)c1c(O)cc2c(c1O)C(CC(C)C)C1=C(CCC(C)(C)C1=O)O2 (stereo not drawn) | 2.2 µM | 16 µM | 7.27 |  | 
CC(C)CC(=O)c1c(O)cc2c(c1O)[C@@H](CC(C)C)C1=C(O2)C(C)(C)C(=O)C(C)(C)C1=O | 0.41 µM | 7.5 µM | 18.3 |  | 
CC(C)CC(=O)c1c(O)cc2c(c1O)C(c1ccccc1)C1=C(O2)C(C)(C)C(=O)C(C)(C)C1=O (stereo not drawn) | 0.45 µM | 11 µM | 24.4 | 0.4 µM | 0.3 µM
CC(C)CC(=O)c1c(O)cc(O)c2c1OC1=C(C(=O)C(C)(C)C(=O)C1(C)C)C2CC(C)C (racemic) | 2.25 µM | 10 µM | 4.44 |  | 
CC(C)CC(O)c1c(O)cc2c(c1O)C(CC(C)C)C1=C(O2)C(C)(C)C(=O)C(C)(C)C1=O (stereo not drawn) | > 100 µM | > 100 µM |  |  | 
CC(C)CC(=O)c1c(O)cc2c(c1O)[C@H](CC(C)C)C1=C(C[C@H](C)CC1=O)O2 | 2.25 µM | 20 µM | 8.89 |  | 
CC(C)CC(=O)c1c(O)cc2c(c1O)C(C)C1=C(O2)C(C)(C)C(=O)C(C)(C)C1=O (racemic) | 0.8 µM | 10 µM | < 18.8 |  | 
CC(C)CC(=O)c1c(O)cc2c(c1O)[C@H](CC(C)C)C1=C(O2)C(C)(C)C(=O)C(C)(C)C1=O | 0.39 µM | 7.28 µM | 18.7 |  | 
CC(C)CC(=O)c1c(O)cc2c(c1O)C(CC(C)C)C1=C(CCCC1=O)O2 (stereo not drawn) | 3 µM | 16 µM | 5.33 |  | 
COc1c(C(=O)CC(C)C)c(O)cc2c1C(CC(C)C)C1=C(O2)C(C)(C)C(=O)C(C)(C)C1=O (stereo not drawn) | 50 µM | > 100 µM |  |  | 
CC(C)CC1C2=C(Oc3cc(O)c(C(=O)c4ccccc4)c(O)c31)C(C)(C)C(=O)C(C)(C)C2=O (stereo not drawn) | 2.5 µM | 10 µM | 4 |  | 
CC(C)CC1C2=C(Oc3cc(O)c(C(=O)C4CCCC4)c(O)c31)C(C)(C)C(=O)C(C)(C)C2=O (stereo not drawn) | 0.58 µM | 9 µM | 15.5 | 0.3 µM | 0.3 µM
CC(C)C1C2=C(Oc3cc(O)cc(O)c31)C(C)(C)C(=O)C(C)(C)C2=O (stereo not drawn) | 9 µM | 20 µM | 2.22 |  | 
CC(=O)c1c(O)cc(O)c2c1OC1=C(C(=O)C(C)(C)C(=O)C1(C)C)C2CC(C)C (stereo not drawn) | 10 µM | > 100 µM | > 10 |  | 
CC(C)CC1C2=C(Oc3c(C(=O)C4CCC4)c(O)cc(O)c31)C(C)(C)C(=O)C(C)(C)C2=O (stereo not drawn) | 5.5 µM | 10 µM | < 2.72 |  | 
CCC1C2=C(Oc3c(C(=O)CC(C)C)c(O)cc(O)c31)C(C)(C)C(=O)C(C)(C)C2=O (racemic) | 1.5 µM | 10 µM | < 10 |  | 
CC(C)CC1C2=C(Oc3cc(O)c(C(=O)Cc4ccc(F)cc4)c(O)c31)C(C)(C)C(=O)C(C)(C)C2=O (stereo not drawn) | 0.35 µM | 6 µM | 17.1 | 0.2 µM | 0.2 µM
CC(C)CC(=O)c1c(O)cc2c(c1O)C(C1CCC1)C1=C(O2)C(C)(C)C(=O)C(C)(C)C1=O (stereo not drawn) | 0.5 µM | 5 µM | 10 | 0.5 µM | 0.4 µM
CC(C)CC1C2=C(Oc3cc(O)c(C(=O)Cc4ccccc4)c(O)c31)C(C)(C)C(=O)C(C)(C)C2=O (stereo not drawn) | 0.4 µM | 8.5 µM | 21.2 | 0.3 µM | 0.5 µM
CCCC(=O)c1c(O)cc2c(c1O)C(CC(C)C)C1=C(O2)C(C)(C)C(=O)C(C)(C)C1=O (stereo not drawn) | 0.5 µM | 10 µM |  | 0.8 µM | 0.6 µM
CC(C)CC(=O)c1c(O)cc2c(c1O)C(C(C)C)C1=C(O2)C(C)(C)C(=O)C(C)(C)C1=O (stereo not drawn) | 0.63 µM | 10 µM | 15.9 | 0.6 µM | 0.7 µM
CC(C)CC(=O)c1c(O)cc(O)c2c1OC1=C(C(=O)C(C)(C)C(=O)C1(C)C)C2c1ccccc1 (racemic) | 2.5 µM | 12.8 µM | 5.11 |  | 
